What was measured:
Assay type in all cases: in vivo
[1] = system: Beet Armyworm (Spodoptera exigua, "BAW"); experiment: Bioassay on beet armyworm, 128-well diet tray assay; details: 168 h, 50 μg/cm^2 of test compound on artificial diet, second instar larvae, 25° C., five to seven days, average of eight wells, read-out: BAW % Control (or Mortality) rating
Experimental: (§1) Bioassays on Beet Armyworm (Spodoptera exigua, “BAW”) and Cabbage Looper (Trichoplusia ni, “CL”)
(§2) Certain molecules disclosed in this document were tested against BAW and CL using procedures described in the following examples. In the reporting of the results, the “BAW & CL Rating Table” was used (See Table Section).
Bioassays on BAW were conducted using a 128-well diet tray assay. one to five second instar BAW larvae were placed in each well (3 mL) of the diet tray that had been previously filled with 1 mL of artificial diet to which 50 μg/cm^2 of the test compound (dissolved in 50 μL of 90:10 acetone-water mixture) had been applied (to each of eight wells) and then allowed to dry. Trays were covered with a clear self-adhesive cover and held at 25° C., 14:10 light-dark cycle for five to seven days. Percent mortality was recorded for the larvae in each well; activity in the eight wells was then averaged. The results are indicated in the table entitled “Table ABC: Biological Results” (See Table Section).

[2] = system: Cabbage Looper (Trichoplusia ni, "CL"); experiment: Bioassay on cabbage looper, 128-well diet tray assay; details: 168 h, 50 μg/cm^2 of test compound on artificial diet, second instar larvae, 25° C., five to seven days, average of eight wells, read-out: CL % Control (or Mortality) rating
Experimental: as §1, §2
Bioassays on CL were conducted using a 128-well diet tray assay. one to five second instar CL larvae were placed in each well (3 mL) of the diet tray that had been previously filled with 1 mL of artificial diet to which 50 μg/cm^2 of the test compound (dissolved in 50 μL of 90:10 acetone-water mixture) had been applied (to each of eight wells) and then allowed to dry. Trays were covered with a clear self-adhesive cover and held at 25° C., 14:10 light-dark cycle for five to seven days. Percent mortality was recorded for the larvae in each well; activity in the eight wells was then averaged. The results are indicated in the table entitled “Table ABC: Biological Results” (See Table Section).

[3] = system: Yellow Fever Mosquito (Aedes aegypti, "YFM"); experiment: Bioassay on yellow fever mosquito larvae, 96-well plate assay; details: 4000 ppm DMSO master solution diluted with 90:10 water:acetone; about 1 day-old larvae; room temperature; scored after 3 days
Experimental: Bioassays On Yellow Fever Mosquito (Aedes aegypti, “YFM”)
Certain molecules disclosed in this document were tested against YFM using procedures described in the following paragraph. In the reporting of the results, the “YFM Rating Table” was used (See Table Section).
Master plates containing 400 μg of a molecule dissolved in 100 μL of dimethyl sulfoxide (DMSO) (equivalent to a 4000 ppm solution) are used. A master plate of assembled molecules contains 15 μL per well. To this plate, 135 μL of a 90:10 water:acetone mixture is added to each well. A robot (Biomek® NXP Laboratory Automation Workstation) is programmed to dispense 15 μL aspirations from the master plate into an empty 96-well shallow plate (“daughter” plate). There are 6 reps (“daughter” plates) created per master. The created daughter plates are then immediately infested with YFM larvae.
The day before plates are to be treated, mosquito eggs are placed in Millipore water containing liver powder to begin hatching (4 g. into 400 mL). After the daughter plates are created using the robot, they are infested with 220 μL of the liver powder/larval mosquito mixture (about 1 day-old larvae). After plates are infested with mosquito larvae, a non-evaporative lid is used to cover the plate to reduce drying. Plates are held at room temperature for 3 days prior to grading. After 3 days, each well is observed and scored based on mortality.

Structure (SMILES)	mortality at 50 µg/cm2 [1] [%]	mortality at 50 µg/cm2 [2] [%]	YFM % Control (or Mortality) rating [3]
O=C(/N=C1\SCC(=O)N1c1cccc2c1COC2=O)Nc1ccc(-c2ncn(-c3ccc(OC(F)(F)F)cc3)n2)cc1F [F19, (Z)-1-(2-Fluoro-4-(1-(4-(trifluoromethoxy)phenyl)-1H-1,2,4-triazol-3-yl)phenyl)-3-(4-oxo-3-(1-oxo-1,3-dihydroisobenzofuran-4-yl)thiazolidin-2-ylidene)urea]	50 to 100	0	D (No activity noticed in this bioassay)
O=C(/N=C1\SCC(=O)N1c1cccc2ccccc12)Nc1ccc(-c2ncn(-c3ccc(OC(F)(F)F)cc3)n2)cc1F [F16, (Z)-1-(2-Fluoro-4-(1-(4-(trifluoromethoxy)phenyl)-1H-1,2,4-triazol-3-yl)phenyl)-3-(3-(naphthalen-1-yl)-4-oxothiazolidin-2-ylidene)urea]	50 to 100	50 to 100	A (80-100)
Cc1cc(-c2ncn(-c3ccc(OC(F)(F)C(F)(F)F)cc3)n2)ccc1NC(=O)/N=C1\SCC(=O)N1c1cccc2occc12 [F22, (Z)-1-(3-(Benzofuran-4-yl)-4-oxothiazolidin-2-ylidene)-3-(2-methyl-4-(1-(4-(perfluoroethoxy)phenyl)-1H-1,2,4-triazol-3-yl)phenyl)urea]	50 to 100	50 to 100	A (80-100)
O=C(/N=C1\SCC(=O)N1c1cccc2c1CCOC2)Nc1ccc(-c2ncn(-c3ccc(OC(F)(F)F)cc3)n2)cc1F [F18, (Z)-1-(2-Fluoro-4-(1-(4-(trifluoromethoxy)phenyl)-1H-1,2,4-triazol-3-yl)phenyl)-3-(3-(isochroman-5-yl)-4-oxothiazolidin-2-ylidene)urea]	50 to 100	50 to 100	A (80-100)
CN1CCOc2c1cccc2N1C(=O)CS/C1=N\C(=O)Nc1ccc(-c2ncn(-c3ccc(OC(F)(F)F)cc3)n2)cc1F [F12, (Z)-1-(2-Fluoro-4-(1-(4-(trifluoromethoxy)phenyl)-1H-1,2,4-triazol-3-yl)phenyl)-3-(3-(4-methyl-3,4-dihydro-2H-benzo[b][1,4]oxazin-8-yl)-4-oxothiazolidin-2-ylidene)urea]	50 to 100	50 to 100	A (80-100)
O=C(/N=C1\SCC(=O)N1c1cccc2ccoc12)Nc1ccc(-c2ncn(-c3ccc(C(F)(F)C(F)(F)F)cc3)n2)cc1F [F21, (Z)-1-(3-(Benzofuran-7-yl)-4-oxothiazolidin-2-ylidene)-3-(2-fluoro-4-(1-(4-(perfluoroethyl)phenyl)-1H-1,2,4-triazol-3-yl)phenyl)urea]	50 to 100	50 to 100	A (80-100)
O=C(/N=C1\SCC(=O)N1c1cccc2occc12)Nc1ccc(-c2ncn(-c3ccc(C(F)(F)C(F)(F)F)cc3)n2)cc1F [F20, (Z)-1-(3-(Benzofuran-4-yl)-4-oxothiazolidin-2-ylidene)-3-(2-fluoro-4-(1-(4-(perfluoroethyl)phenyl)-1H-1,2,4-triazol-3-yl)phenyl)urea]	50 to 100	50 to 100	D (No activity noticed in this bioassay)
O=C(/N=C1\SCC(=O)N1c1cccc2ncccc12)Nc1ccc(-c2ncn(-c3ccc(C(F)(F)F)cc3)n2)cc1F [F33, (Z)-1-(2-Fluoro-4-(1-(4-(trifluoromethyl)phenyl)-1H-1,2,4-triazol-3-yl)phenyl)-3-(4-oxo-3-(quinolin-5-yl)thiazolidin-2-ylidene)urea]	50 to 100	50 to 100	A (80-100)
Cc1cc(-c2ncn(-c3ccc(OC(F)(F)C(F)(F)F)cc3)n2)ccc1NC(=O)/N=C1\SCC(=O)N1c1cccc2c1ccn2C [F27, (Z)-1-(3-(1-Methyl-1H-indol-4-yl)-4-oxothiazolidin-2-ylidene)-3-(2-methyl-4-(1-(4-(perfluoroethoxy)phenyl)-1H-1,2,4-triazol-3-yl)phenyl)urea]	50 to 100	50 to 100	A (80-100)
Cn1ccc2c(N3C(=O)CS/C3=N\C(=O)Nc3ccc(-c4ncn(-c5ccc(OC(F)(F)F)cc5)n4)cc3F)cccc21 [F15, (Z)-1-(2-Fluoro-4-(1-(4-(trifluoromethoxy)phenyl)-1H-1,2,4-triazol-3-yl)phenyl)-3-(3-(1-methyl-1H-indol-4-yl)-4-oxothiazolidin-2-ylidene)urea]	50 to 100	50 to 100	A (80-100)
Cc1cc(-c2ncn(-c3ccc(OC(F)(F)C(F)(F)F)cc3)n2)ccc1NC(=O)/N=C1\SCC(=O)N1c1cccc2ccoc12 [F23, (Z)-1-(3-(Benzofuran-7-yl)-4-oxothiazolidin-2-ylidene)-3-(2-methyl-4-(1-(4-(perfluoroethoxy)phenyl)-1H-1,2,4-triazol-3-yl)phenyl)urea]	50 to 100	50 to 100	A (80-100)
O=C(/N=C1\SCC(=O)N1c1ccc2ccccc2c1)Nc1ccc(-c2ncn(-c3ccc(OC(F)(F)F)cc3)n2)cc1F [F13, (Z)-1-(2-Fluoro-4-(1-(4-(trifluoromethoxy)phenyl)-1H-1,2,4-triazol-3-yl)phenyl)-3-(3-(naphthalen-2-yl)-4-oxothiazolidin-2-ylidene)urea]	50 to 100	50 to 100	D (No activity noticed in this bioassay)
Cn1ccc2ccc(N3C(=O)CS/C3=N\C(=O)Nc3ccc(-c4ncn(-c5ccc(OC(F)(F)F)cc5)n4)cc3F)cc21 [F14, (Z)-1-(2-Fluoro-4-(1-(4-(trifluoromethoxy)phenyl)-1H-1,2,4-triazol-3-yl)phenyl)-3-(3-(1-methyl-1H-indol-6-yl)-4-oxothiazolidin-2-ylidene)urea]	50 to 100	50 to 100	A (80-100)

— patent US20240057606A1, “MOLECULES HAVING CERTAIN PESTICIDAL UTILITIES, AND INTERMEDIATES, COMPOSITIONS, AND PROCESSES RELATED THERETO” (priority 2020, published 2024)
